The source of these data is patent US7109193B2, “Tricyclic diazepines tocolytic oxytocin receptor antagonists” (Wyeth, priority 2001, dated 2006).

By inhibition is commonly meant the drop in the measured response relative to a control, in per cent.

The target of the assay is T1, human vasopressin V2 receptor subtype (Homo sapiens, UniProt P30518).
T1 construct: host or cells: CHO cells (pZeoSV vector)
Kind of assay: Vasopressin binding in Chinese Hamster Ovary cell membranes expressing human vasopressin V2 subtype receptors. The settings on record: 100 nM, CHO cell membranes, [3H]arginine vasopressin, values without parentheses. How it is done: Vasopressin Binding in Chinese Hamster Ovary Cell Membranes Expressing Human Vasopressin V2 Subtype Receptors
Chinese Hamster Ovary (CHO) cells stably transfected with the human V2 subtype receptors were obtained from M. Thibonnier, Case Western Reserve University School of Medicine, Cleveland, Ohio.
A. Passaging and Amplification of Cells:
The trypsin is removed by aspiration and the cells dislodged by tapping. Cell Culture medium (e.g. 30 mL for 1:30 split) is immediately added and mixed well to inactivate trypsin. 1 mL of detached cells is added to new culture flasks containing fresh Cell Culture medium (e.g. into 25 mL per T-150 flask), and mixed gently. The cells are incubated at 37° C. in 5% CO2. The medium is changed at 3 to 4 day interval (or as appropriate). […] All steps are done under sterile conditions. B. Membrane Preparation: The cells are washed twice gently with Hank's Balanced Salt solution (e.g. use 10 mL per T-150 flask). […] The contents are transferred to centrifuge tubes (50 mL) kept in ice bath. All subsequent steps are done at 4° C. The tubes are centrifuged at 300×g for 15 min (1380 rpm on SORVAL, Model RT6000D, using the rotor for 50 mL tubes). The supernatant is discarded and the cells suspended in homogenizing buffer (10 mM Tris-HCl containing 0.25 M sucrose and 1 mM EDTA, pH 7.4) ensuring that the volume of the buffer is about ten times the volume of the cell pellet. The cells are pooled into a centrifuge tube (50 mL) and homogenized with a Polytron at setting 6 for 10 sec. The homogenate is transferred into a Potter-Elvjehm homogenizer and homogenized with 3 strokes. The homogenate is centrifuged at 1500×g for 60 min at 4° C. (3100 rpm using SORVAL, model RT6000D, using the rotor for 50 mL tubes). The pellet is discarded. The supernatant is centrifuged at 100,000×g for 60 min. at 4° C. (Beckman L8-80M ultracentrifuge; spin at 37,500 rpm with rotor type 70 Ti for 50 mL tubes; 38,000 rpm with type 80Ti for 15 mL tubes; or 35,800 rpm with rotor type 45Ti). The supernantant is discarded and the pellet suspended in 3 to 4 mL of Tris buffer (50 mM TRIS-HCl, pH 7.4). The protein content is estimated by the Bradford or Lowry method. The volume of the membrane suspension is adjusted with the membrane buffer (50 mM Tris-HCl containing 0.1% BSA and 0.1 mM PMSF) to give 3.0 mg/mL (or as appropriate) of protein. The membranes are aliquoted and stored at −70° C. C. Radioligand Binding Assay: In wells of a 96-well format microtiter plate, is added 90, 110 or 130 μL (to make up a final volume of 200 μL) of assay buffer containing 50 mM of Tris-HCl (pH 7.4), […], 1 mg % aprotinin, 1 mg % leupeptin, 2 mg % 1,10-phenanthroline, 10 mg % trypsin inhibitor, and 0.1 mM PMSF. The inhibitors are added on the day of the experiment. The components are mixed at room temperature, and then kept in ice bath following adjustment of the pH to 7.4. […] For vasopressin and other peptide ligands 20 μL of 50% DMSO is added and the assay buffer volume is adjusted accordingly. To each well is added 50 μL of frozen membrane suspension thawed immediately prior to use and diluted in assay buffer to the required concentration (equivalent to 25 to 50 μg of protein/well as needed). 20 μL of 8 nM [^3H]arginine vasopressin ligand in the assay buffer, prepared just before use is added and incubated at room temperature for 60 min. shaking the plate on a mechanical shaker for the first 15 min. The incubation is stopped by rapid filtration of the plate contents followed by wash with ice-cold buffer (50 mM Tris-HCl, pH 7.4) using a cell harvester (Tomtek and Printed filtermat-B filter paper). The filter paper is thoroughly dried (7–12 min. in a microwave oven) and impregnated with MeltiLex B/H melt-on scintillation wax sheets and the radioactivity counted in a betaplate scintillation counter.
As for “{10-[(2,2′-Dimethoxy[1,1′-biphenyl]-4-yl)carbonyl]-10,11-dihydro-5H-pyrrolo[2,1-c][1,4]benzodiazepin-3-yl}(4-isopropyl-1-piperazinyl)methanone [Example 244]”, the “V2 % inhibition @ 100 nM” value was found to be 9%.

Turning to `Cc1cc(C(=O)N2Cc3ccc(C(=O)NCCCn4ccnc4)n3Cc3ccccc32)ccc1-c1ccccc1C(F)(F)F` [Example 135, N-[3-(1H-Imidazol-1-yl)propyl]-10-{[2-methyl-2′-(trifluoromethyl)[1,1′-biphenyl]-4-yl]carbonyl}-10,11-dihydro-5H-pyrrolo[2,1-c][1,4]benzodiazepine-3-carboxamide], the inhibition at 0.1 µM was found to be 1%.

For the molecule `COc1ccccc1-c1ccc(C(=O)N2Cc3ccc(C(=O)N4CCC(N5CCCCC5)CC4)n3Cc3ccccc32)cc1OC` [Example 119, {10-[(2,2′-Dimethoxy-[1,1′-biphenyl]-4-yl)carbonyl]-10,11-dihydro-5H-pyrrolo[2,1-c][1,4]benzodiazepin-3-yl}[4-(1-piperidinyl)-1-piperidinyl]methanone], the inhibition at 0.1 µM turned out to be 15%.

Consider `COc1cc(C(=O)N2Cc3ccc(C(=O)N4CCC(N5CCCCC5)CC4)n3Cc3ccccc32)ccc1-c1cccc2ccccc12` [Example 118, {10-[3-Methoxy-4-(1-naphthyl)-benzoyl]-10,11-dihydro-5H-pyrrolo[2,1-c][1,4]benzodiazepin-3-yl}[4-(1-piperidinyl)-1-piperidinyl]methanone], for which the inhibition at 0.1 µM worked out at 39%.

As for `COc1ccccc1-c1ccc(C(=O)N2Cc3ccc(C(=O)N4CCC(N5CCCC5)CC4)n3Cc3ccccc32)cc1C` [Example 137, {10-[(2′-Methoxy-2-methyl[1,1′-biphenyl]-4-yl)carbonyl]-10,11-dihydro-5H-pyrrolo[2,1-c][1,4]benzodiazepin-3-yl}[4-(1-pyrrolidinyl)-1-piperidinyl]methanone], the inhibition at 0.1 µM is -4%.

As to `COc1ccccc1-c1ccc(C(=O)N2Cc3ccc(C(=O)NCCCn4ccnc4)n3Cc3ccccc32)cc1` [Example 126, N-[3-(1H-Imidazol-1-yl)propyl]-10-[(2′-methoxy[1,1′-biphenyl]-4-yl)carbonyl]-10,11-dihydro-5H-pyrrolo[2,1-c][1,4]benzodiazepine-3-carboxamide], the inhibition at 0.1 µM was determined as 18%.

In the case of `COc1cc(C(=O)N2Cc3ccc(C(=O)NCCCn4ccnc4)n3Cc3ccccc32)ccc1-c1cccc2ccccc12` [Example 131, N-[3-(1H-Imidazol-1-yl)propyl]-10-[3-methoxy-4-(1-naphthyl)benzoyl]-10,11-dihydro-5H-pyrrolo[2,1-c][1,4]benzodiazepine-3-carboxamide], the inhibition at 0.1 µM turned out to be 13%.

Turning to `COc1cccc(-c2ccc(C(=O)N3Cc4ccc(C(=O)N5CCN(CCN(C)C)CC5)n4Cc4ccccc43)cc2C)c1` [Example 199, {4-[2-(Dimethylamino)ethyl]-1-piperazinyl{}10-[(3′-methoxy-2-methyl[1,1′-biphenyl]-4-yl)carbonyl]-10,11-dihydro-5H-pyrrolo[2,1-c][1,4]benzodiazepin-3-yl}methanone], the “V2 % inhibition @ 100 nM” value stood at 6%.

`COc1cc(C(=O)N2Cc3ccc(C(=O)N4CCC(N5CCCC5)CC4)n3Cc3ccccc32)ccc1-c1cccc2ccccc12` [Example 144, {10-[3-Methoxy-4-(1-naphthyl)benzoyl]-10,11-dihydro-5H-pyrrolo[2,1-c][1,4]benzodiazepin-3-yl}[4-(1-pyrrolidinyl)-1-piperidinyl]methanone]: the inhibition at 0.1 µM was 3%.

In the case of `Cc1ccccc1-c1ccc(C(=O)N2Cc3ccc(C(=O)N4CCC(N5CCCC5)CC4)n3Cc3ccccc32)cc1` [Example 141, {10-[(2′-Methyl[1,1′-biphenyl]-4-yl)carbonyl]-10,11-dihydro-5H-pyrrolo[2,1-c][1,4]benzodiazepin-3-yl}[4-(1-pyrrolidinyl)-1-piperidinyl]methanone], the inhibition at 0.1 µM was found to be 8%.

Turning to `COc1cc2c(cc1OC)N(C(=O)c1ccc(-c3ccccc3C(F)(F)F)c(C)c1)Cc1ccc(C(=O)N3CCC(=O)CC3)n1C2` [Example 14, 7,8-Dimethoxy-10-{[2-methyl-2′-(trifluoromethyl)-[1,1′-biphenyl]-4-yl]carbonyl}-[(10,11-dihydro-5H-pyrrolo[2,1-c][1,4]benzodiazepin-3-yl)carbonyl]-4-piperidinone], the “V2 % inhibition @ 100 nM” value is −3%.

For `Cc1ccccc1-c1ccc(C(=O)N2Cc3ccc(C(=O)N4CCC[C@H]4CN4CCCC4)n3Cc3ccccc32)cc1` [Example 264, {10-[(2′-Methyl[1,1′-biphenyl]-4-yl)carbonyl]-10,11-dihydro-5H-pyrrolo[2,1-c][1,4]benzodiazepin-3-yl}[(2S)-2-(1-pyrrolidinylmethyl)pyrrolidinyl]methanone], the “V2 % inhibition @ 100 nM” value is 12%.

On to `COc1cccc(-c2cc(OC)c(C(=O)N3Cc4ccc(C(=O)N5CCC(N6CCCCC6)CC5)n4Cc4ccccc43)cc2Cl)c1` [Example 117, {10-[(6-Chloro-3-methoxy-3′-methoxy[1,1′-biphenyl]-4-yl)carbonyl]-10,11-dihydro-5H-pyrrolo[2,1-c][1,4]benzodiazepin-3-yl}[4-(1-piperidinyl)-1-piperidinyl]methanone], for which the inhibition at 0.1 µM stood at 14%.

For the molecule `COc1cccc(-c2ccc(C(=O)N3Cc4ccc(C(=O)N(C)CCCN(C)C)n4Cc4ccccc43)cc2OC)c1` [Example 108, 10-[(2,3′-Dimethoxy[1,1′-biphenyl]-4-yl)carbonyl]-N-[3-(dimethylamino)propyl]-N-methyl-10,11-dihydro-5H-pyrrolo[2,1-c][1,4]benzodiazepine-3-carboxamide], the inhibition at 0.1 µM was found to be 8%.

Take `COc1cccc(-c2ccc(C(=O)N3Cc4ccc(C(=O)NCCC5CCCN5C)n4Cc4ccccc43)cc2C)c1` (stereo not shown) [Example 164, 10-[(3′-Methoxy-2-methyl[1′1′-biphenyl]-4-yl)carbonyl]-N-[2-(1-methyl-2-pyrrolidinyl)ethyl]-10,11-dihydro-5H-pyrrolo[2,1-c][1,4]benzodiazepine-3-carboxamide]: the “V2 % inhibition @ 100 nM” value came to 16%.

In the case of `COc1ccccc1-c1ccc(C(=O)N2Cc3ccc(C(=O)NCCN4CCCCC4)n3Cc3ccccc32)cc1` [Example 152, 10-[(2′-Methoxy[1,1′-biphenyl]-4-yl)carbonyl]-N-[2-(1-piperidinyl)ethyl]-10,11-dihydro-5H-pyrrolo[2,1-c][1,4]benzodiazepine-3-carboxamide], the inhibition at 0.1 µM turned out to be 10%.

For the molecule `COc1cc(-c2ccccc2C)c(Cl)cc1C(=O)N1Cc2ccc(C(=O)NCCN3CCCCC3)n2Cc2ccccc21` [Example 155, 10-[(6-Chloro-3-methoxy-2′-methyl[1,1′-biphenyl]-4-yl)carbonyl]-N-[2-(1-piperidinyl)ethyl]-10,11-dihydro-5H-pyrrolo[2,1-c][1,4]benzodiazepine-3-carboxamide], the inhibition at 0.1 µM came out at 15%.

Regarding `O=C(c1ccc2n1Cc1ccccc1N(C(=O)c1ccc(-c3cccc4ccccc34)cc1Cl)C2)N1CCC(N2CCCCC2)CC1` [Example 121], the “V2 % inhibition @ 100 nM” value worked out at 13%.

`COc1cc(C(=O)N2Cc3ccc(C(=O)NCCN4CCCCC4)n3Cc3ccccc32)ccc1-c1ccccc1C` [Example 154, 10-[(2-Methoxy-2′-methyl[1,1′-biphenyl]4-yl)carbonyl]-N-[2-(1-piperidinyl)ethyl]-10,11-dihydro-5H-pyrrolo[2,1-c][1,4]benzodiazepine-3-carboxamide]: the inhibition at 0.1 µM came to 9%.
